Data as given in PMC10747112, “Triphenylphosphine Derivatives of Allylbenzenes Express Antitumor and Adjuvant Activity When Solubilized with Cyclodextrin-Based Formulations” (Pharmaceuticals, 2023).
In brackets after ≈: the same amount, converted by molar mass. Where two headings read alike, the source gives them in different places. Marks after values point to notes of the source that are not given here.

Tests used:
[1] = design: unit not given here; conditions: unmodified allylbenzenes; cited from earlier work
[2] = test system: A549 cells; experiment: MTT assay, cytotoxic activity against A549; assay type: cell-based; conditions: Homo sapiens
Method: Concentrations of the active substance varied from 10^−2 to 10^−4 M. For MTT assay and biological experiments, substances in the concentration range from 10^−3 to 10^−9 M were studied by the dilution of initial ones in a cell growth medium or buffer.
Adenocarcinomic human alveolar basal epithelial cells A549 cell lines (Manassas, VA, USA) were cultured in RPMI-1640 medium, linear cells of the embryonic kidney human epithelium (HEK293T) were grown in DMEM medium as described earlier. Cell lines were obtained from Lomonosov Moscow State University Depository of Live Systems Collection and Laboratory of Medical Biotechnology, Institute of Biomedical Chemistry (Moscow, Russia).
(§1) The cytotoxic activity of paclitaxel, Apiol-PPh3 and analogues was determined using an MTT test. Paclitaxel-adjuvant synergism coefficients (SC) were calculated as CV (paclitaxel) × CV (alone adjuvant)/CV (combo paclitaxel + adjuvant), where CV represents the cell viability. The synergy coefficient can be interpreted as strong synergy (SC > 2), synergy (2 > SC > 1.2), indifference/additivity (1.2 > SC > 0.8), antagonism (0.8 > SC > 0.5), and inhibition (SC < 0.5), as described earlier.

[3] = test system: A549 cells; experiment: MTT assay, synergy of adjuvants with paclitaxel against A549; assay type: cell-based, human; conditions: X − M-β-CD, SC = CV(paclitaxel) × CV(adjuvant)/CV(combo)
Text: Apparently PPh3 derivatives effectively penetrate into cancer cells along a potential gradient, inhibit efflux proteins and mitochondrial enzymes, causing the apoptosis of cancer cells, with IC50 values being lower by two orders of magnitude than the corresponding allylbenzene (Table 3). […] For allylbenzenes, a synergy close to additivity (the cytostatic effect of adjuvant + paclitaxel is almost equal to the sum of their individual contributions) was observed; for PPh3 derivatives, a pronounced increase in the action of paclitaxel is characteristic (the cytostatic effect of adjuvant + paclitaxel is much higher (>) than the sum of their individual contributions). For apiol-PPh3, the most pronounced effect of increasing the activity of paclitaxel was observed (Figure 4b).
Figure 4 Viability of A549 cells in the presence of paclitaxel and allylbenzenes’ PPh3 derivatives in the form of complexes with M-β-CD (1:5 mol/mol). MTT assay. (a) Dose–effect graphs. (b) MTT assay results for 100 nM paclitaxel alone and combined with allylbenzenes’ PPh3 derivatives in the form of complexes with M-β-CD (1:5 mol/mol).
as §1

[4] = Solubility by UV spectroscopy (PBS, with and without M-β-CD); assay type: physicochemical; conditions: PBS
Method: On the contrary, their complexes with M-β-CD are soluble, and a clear peak in the UV spectrum is pronounced (225 nm). Based on UV spectra data in the presence of M-β-CD, the increase in solubility of apiol-PPh3 and analogues by a second order of magnitude is observed (Table 2).
The solubility of apiol and apiol-PPh3 (or analogues) in aqueous solution was determined by UV spectroscopy. UV spectra were recorded on the UltraSpec 2100 pro device (AmerSham Biosciences, Cambridge, UK) three times. The substances were dissolved in acetonitrile followed by recording the UV spectra at various cytostatics’ concentrations, and then we plotted calibration dependencies. Next, saturated solutions of substances in water were prepared, and the spectra of the aqueous solutions were recorded. Considering the extinction coefficients in water and acetonitrile to be approximately equal, the solubility was determined.

[5] = test system: cytochrome P450 3A4; conditions: read-out: IC50 cytochrome P450 3A4; cited from earlier work
[6] = test system: cancer cells; design: method as in PMID 35128247; conditions: dillapiol 25–50 µM; cited from earlier work
[7] = test system: sea urchin embryos; experiment: Phenotypic sea urchin embryo assay; assay type: in vivo; conditions: X in M-β-CD
Text: (§2) Hemolytic activity and thrombogenicity are the primary parameters for evaluating the safety of medical formulations. The phenotypic sea urchin embryo assay developed by colleagues is a visual way to study the toxicity of formulations in vivo. The sea urchin and human genomes contain more than 7000 common genes, including orthologs associated with a number of human diseases. Therefore, sea urchins can be considered as a reliable and versatile model organism for studying the safety of new and existing cytotoxic formulations in vivo. Table 5 presents data on the % of erythrocyte hemolysis, the degree of whole blood thrombosis of apiol-PPh3 and analogues, and data of phenotypic sea urchin embryo assay. Thus, the non-toxicity of PPh3 derivatives of allylbenzenes for normal non-cancer cells, as well as the selectivity of action against cancer cells, is shown. The selectivity of cytotoxic action against cancer cells in comparison with normal cells can be explained by the fact that the PPh3- cation provides selective accumulation and reduction in the mitochondrial membrane potential of the transformed cancer cells. Cyclodextrin (M-β-CD) and heparin are non-toxic (and approved by the FDA for intravenous application).
Adult sea urchins, Paracentrotus lividus L. (Echinidae), were collected from the Mediterranean Sea on the Cyprus coast and kept in an aerated seawater tank and were used to study the cleavage alteration of Apiol-PPh3 and analogues. Experiments with sea urchin embryos comply with the requirements of biological ethics.

[8] = test system: whole blood; experiment: Thrombogenicity (whole blood thrombosis); conditions: X in M-β-CD; 0.1 mg/mL; relative to control with microscopic glass particles
Text: as §2
(§3) The hemolytic activity and thrombogenicity of apiol-PPh3 and analogues were studied using an earlier published technique.

[9] = test system: erythrocytes; experiment: Hemolytic activity; assay type: cell-based; conditions: X in M-β-CD; 0.1 mg/mL; released hemoglobin relative to 0.05% Triton X-100 control
Text: as §2, §3

[10] = test system: HEK293T cells; experiment: FTIR spectroscopy of HEK293T cells during incubation with drug (penetration/adsorption); assay type: cell-based, human; conditions: 60 min incubation (apiol-PPh3 in M-β-CD) or pre-incubation (doxorubicin controls); 37 °C
Text: The main cell structural units that contribute to the absorption of IR diapason can be assigned as follows (Figure 5): lipids of the cell membrane (2800–3000 cm^−1), proteins, especially transmembrane (1500–1700 cm^−1), phosphate groups of DNA (1240 cm^−1) and carbohydrates, including lipopolysaccharides (900–1100 cm^−1). Previously, we developed a technique for tracking the penetration and adsorption of the drug into cells using FTIR spectroscopy: dramatic changes in the intensity of the peaks of amide 1 and amide 2 indicate effective penetration of the drug into cells and vice versa.
Here, we present the real-time data of FTIR spectroscopy during the incubation of a suspension of HEK293T cells with apiol-PPh3 in M-β-CD (Figure 5). […] There is only a shift of the peak of amide 1 to the low-frequency region (inserts in Figure 5, the normalized intensity is shown) and amide 2 to the high-frequency region with the simultaneous appearance of the shoulder. This indicates the only adsorption of drug molecules on the cell surface, which is also confirmed by a weak increase in the intensity of the peaks at 2850–3000 cm^−1 corresponding to the valence vibrations of the CH2 groups (lipid bilayer). Thus, PPh3 derivatives show only marginal activity against normal cells.

[11] = A549, read-out: −lg (IC50) of X in M-β-CD against A549
[12] = A549, X in M-β-CD 1:5 mol/mol, MTT, read-out: −lg (IC50) of X in M-β-CD against A549 (converted)

C=CCc1cc(OC)c(OC)c(OC)c1OC [Allyltetramethoxybenzene, allyltetramethoxybenzene, reference compound]
−lg Kd (X − M-β-CD) [1]: 3.4 ± 0.3
IC50 [2, 11]: 316 µM
Synergy Coefficients of Adjuvants and PPh3–Adjuvants with Paclitaxel [3]: 1.4 ± 0.2
Solubility in PBS [4]: 160 ± 20 µM (≈ 38.1 µg/mL)

C=CCc1cc(OC)c2c(c1OC)OCO2 [Apiol, 1-allyl-2,5-dimethoxy-3,4-methylenedioxybenzene]
IC50 [5]: 7.9 µM
−lg Kd (X − M-β-CD) [1]: 2.6 ± 0.3
IC50 [2, 11]: 251 µM
Synergy Coefficients of Adjuvants and PPh3–Adjuvants with Paclitaxel [3]: 1.3 ± 0.2
Solubility in PBS [4]: 130 ± 10 µM (≈ 28.9 µg/mL)

C=CCc1cc2c(c(OC)c1OC)OCO2 [Dillapiol, dillapiol]
effect on cell cycle / apoptosis of cancer cells [6]: induced G0/G1 cell cycle arrest
−lg Kd (X − M-β-CD) [1]: 2.7 ± 0.5
IC50 [2, 12]: 631 µM
Synergy Coefficients of Adjuvants and PPh3–Adjuvants with Paclitaxel [3]: 1.1 ± 0.1

C=CCc1cc(OC)c2c(c1)OCO2 [Myristicin, myristicin, reference compound]
−lg Kd (X − M-β-CD) [1]: 3.5 ± 0.2
IC50 [2, 12]: 1260 µM
Synergy Coefficients of Adjuvants and PPh3–Adjuvants with Paclitaxel [3]: 0.9 ± 0.2
solubility ([4]; aqueous buffer, thermodynamic from solid, read-out: Solubility in PBS): 30 ± 7 µM (≈ 5.77 µg/mL)

CC(=O)O[C@H]1C(=O)[C@@]2(C)[C@H]([C@H](OC(=O)c3ccccc3)[C@]3(O)C[C@H](OC(=O)[C@H](O)[C@@H](NC(=O)c4ccccc4)c4ccccc4)C(C)=C1C3(C)C)[C@]1(OC(C)=O)CO[C@@H]1C[C@@H]2O [Paclitaxel, paclitaxel, reference compound]
Concentration Causing Changes in Sea Urchin Embryos [7]: >4 *** μM
Thrombosis Index [8]: 0.6 ± 0.1%
IC50 [2, 12]: 0.631 µM
Hemolysis Index [9]: <0.5 (p = 0.012) %

COc1cccc2c1C(=O)c1c(O)c3c(c(O)c1C2=O)C[C@@](O)(C(=O)CO)C[C@@H]3O[C@H]1C[C@H](N)[C@H](O)[C@H](C)O1 [doxorubicin, reference compound]
changes in FTIR amide I and II peak intensity of HEK293T cells (drug penetration) [10]: Dramatic changes in the intensity of the amide 1 and amide 2 peaks
